{
  "source": "patent US20220273607A1",
  "about": "“METHODS OF USING MODIFIED […] TREAT CANCER” (NORTHWESTERN UNIVERSITY, priority 2019, published 2022)",
  "type_in_all_cases": "cell-based",
  "key": {"HepG2 cells": {"system": "HepG2 cells", "test": "CellTiter Blue cytotoxicity with and without CD36 blocker SSO, HepG2", "details": "different compound concentrations and different concentrations of SSO, FIG. 5"}, "MCF-7 cells": {"system": "MCF-7 cells", "test": "CellTiter Blue cytotoxicity with and without CD36 blocker SSO, MCF-7", "details": "different compound concentrations and different concentrations of SSO, FIG. 4"}, "HT-1080 cells": {"system": "HT-1080 cells", "test": "CellTiter Blue cytotoxicity with and without CD36 blocker SSO, HT-1080", "details": "different compound concentrations and different concentrations of SSO, FIG. 3", "description": "The compound of Example 2 (ODDA-PTX) was compared with paclitaxel (PTX) in terms of cellular uptake. The comparison was carried out in HT-1080 cell culture using sulfosuccinimidyl oleate (SSO), a chemical blocker of fatty acid translocase/CD36:\nCytotoxicity of the compounds was evaluated using the CellTiter Blue (CTB) assay (Promega, cat G8081). Treatments of fatty acid-conjugates were prepared as 1000× serial stock dilutions in DMSO, then diluted into media for 1×, 0.1% DMSO treatment solutions. […]\nExpression of CD36 in HT-1080 was validated using flow cytometry and a fluorophore-conjugated CD36 antibody (CD36, eFluor 660, clone: eBioNL07 (NL07), eBioscience). […] Cells were resuspended in a final volume of 100 μL resuspension and analyzed via flow cytometry for presence of CD36. […]\nHT-1080 cells were plated in 96-well plates one day before treatment, at a seeding density of 10,000 cells/well. […] Fluorescence was measured at 590 nm with excitation at 560 nm using a Perkin Elmer EnSpire plate reader. Average background fluorescence readings of the experimental wells (three wells per treatment concentration). Viability was calculated as the average background-subtracted signal in a well compared to that of a negative control (cells treated with vehicle, […] in media). […]"}},
  "data": [
    {"smiles": "CC(=O)O[C@H]1C(=O)[C@@]2(C)[C@H]([C@H](OC(=O)c3ccccc3)[C@]3(O)C[C@H](OC(=O)[C@H](OC(=O)CCCCCCCCCCCCCCCCC(=O)O)[C@@H](NC(=O)c4ccccc4)c4ccccc4)C(C)=C1C3(C)C)[C@]1(OC(C)=O)CO[C@@H]1C[C@@H]2O", "note": "[ODDA-PTX, Paclitaxel-C18 Diacid Conjugate]", "values": [
      {"measurement": "change of percent viability of the cells with increasing concentration of the CD36 inhibitor", "setting": "HepG2 cells", "result": "increasing the concentration of the CD36 inhibitor correlates with increasing percent viability"},
      {"measurement": "change of percent viability of the cells with increasing concentration of the CD36 inhibitor", "setting": "MCF-7 cells", "result": "increasing the concentration of the CD36 inhibitor correlates with increasing percent viability"},
      {"measurement": "change of percent viability of the cells with increasing concentration of the CD36 inhibitor", "setting": "HT-1080 cells", "result": "increasing the concentration of the CD36 inhibitor correlates with increasing percent viability"}
    ]}
  ]
}
